Holding throughout (type): in vivo
Common to all, as to conditions: rated after 14-21 d

Test [1] concerns ERICA GLY-RES (Glyphosate-resistant Conyza canadensis). Briefly: Greenhouse postemergence foliar herbicidal test on ERICA GLY-RES. The protocol:
(§1) Seeds of the desired test plant species were planted in Sun Gro MetroMix 306 planting mixture, which typically has a pH of 6.0 to 6.8 and an organic matter content of about 30 percent, in plastic pots with a surface area of 103.2 square centimeters (cm^2). […] The plants were grown for 7-36 days (d) in a greenhouse with an approximate 16 hour (h) photoperiod which was maintained at about 28° C. during the day and 26° C. during the night. Nutrients and water were added on a regular basis and supplemental lighting was provided with overhead metal halide 1000-Watt lamps as necessary. The plants were employed for testing when they reached the second or third true leaf stage.
(§2) Treatments consisted of Banvel™ (dicamba dimethylamine salt) and Durango™ herbicide (glyphosate dimethylamine salt) alone and in combinations. An aliquot of
(§3) Banvel^TM (dicamba dimethylamine salt) was placed in 25 milliliter (mL) glass vials and diluted in a volume of water to obtain 1.5 milligrams (mg) active ingredient (ai)/mL concentrated solutions. Subsequent concentrations of Banvel™ (dicamba dimethylamine salt) were obtained by dilution with an equal volume of water. Spray solutions of Durango™ herbicide (glyphosate dimethylamine salt) were prepared following the aforementioned procedure. An aliquot of Durango™ herbicide (glyphosate dimethylamine salt) was placed in 25 milliter (mL) glass vials and mixed in a volume of 100:2 w/w water/ammonium sulfate (AMS) dilution solution to obtain 1.5 milligrams (mg) active ingredient (ai)/mL concentrated solutions.
(§4) Compound requirements are based upon a 12 mL application volume at a rate of 187 liters per hectare (L/ha). Spray solutions of the Banvel^TM (dicamba dimethylamine salt) and Durango™ herbicide (glyphosate dimethylamine salt) were prepared by adding the concentrated solutions to the appropriate amount of dilution solution to form 12 mL spray solution with active ingredients in combination. Banvel™ (dicamba dimethylamine salt) and Durango™ herbicide (glyphosate dimethylamine salt) alone and in combinations were applied to the foliage of plant material with an overhead Mandel track sprayer equipped with 8002E nozzles calibrated to deliver 187 L/ha over an application area of 0.503 square meters (m^2) at a spray height of 18 inches (43 cm) above average plant canopy. Control plants were sprayed in the same manner with the solvent blank.
(§5) The treated plants and control plants were placed in a greenhouse as described above and watered by sub-irrigation to prevent wash-off of the test compounds. After 14-21 d, the condition of the test plants as compared with that of the control plants was determined visually and scored on a scale of 0 to 100 percent where 0 corresponds to no injury and 100 corresponds to complete kill.
(§6) Colby's equation was used to determine the herbicidal effects expected from the mixtures (Colby, S. R. 1967. Calculation of the synergistic and antagonistic response of herbicide combinations. Weeds 15:20-22.).
(§7) The following equation was used to calculate the expected activity of mixtures containing two active ingredients, A and B:
(§8) A=observed efficacy of active ingredient A at the same concentration as used in the mixture;
(§9) B=observed efficacy of active ingredient B at the same concentration as used in the mixture.

Test [2] concerns CHEAL = Chenopodium album (Common lambsquarters/fat hen). In words: Greenhouse postemergence foliar herbicidal test on CHEAL. The protocol: as §1, §2, §3, §4, §5, §6, §7, §8, §9
Test [3] has as its system COMBE = Commelina benghalensis (Dayflower). In words: Greenhouse postemergence foliar herbicidal test on COMBE. The procedure: as §1, §2, §3, §4, §5, §6, §7, §8, §9
Test [4] relates to CHEAL GLY-RES (Glyphosate-resistant Chenopodium album). Briefly: Greenhouse postemergence foliar herbicidal test on CHEAL GLY-RES. The procedure: as §1, §2, §3, §4, §5, §6, §7, §8, §9
Test [5] relates to ERICA = Conyza canadensis (horseweed/marestail). In words: Greenhouse postemergence foliar herbicidal test on ERICA. The procedure:
as §1, §2, §3, §4, §5, §6, §7, §8, §9

Data on two molecules can be found in patent US20110275517A1, “SYNERGISTIC HERBICIDAL COMPOSITION CONTAINING A DICAMBA DERIVATIVE AND A […]” (DOW AGROSCIENCES LLC, priority 2010, published 2011).

With `COc1c(Cl)ccc(Cl)c1C(=O)O` [Dicamba, 3,6-dichloro-2-methoxybenzoic acid], the “Herbicidal effect, observed (Ob), visual injury 0-100” value (“Herbicidal effect, observed (Ob)” below) came to 62% in test [1] (applied alone at 35 g/ha); 83% in test [1] (applied alone at 70 g/ha); 95% in test [1] (applied alone at 140 g/ha); 97% in test [1] (applied alone at 280 g/ha); 34% in test [2] (applied alone at 35 g/ha); 40% in test [2] (applied alone at 70 g/ha). Further, the “Herbicidal effect, observed (Ob)” value turned out to be 52% in test [2] (applied alone at 140 g/ha); 61% in test [2] (applied alone at 280 g/ha); 18% in test [3] (applied alone at 35 g/ha); 25% in test [3] (applied alone at 70 g/ha); 43% in test [3] (applied alone at 140 g/ha); 42% in test [3] (applied alone at 280 g/ha). Also, the “Herbicidal effect, observed (Ob)” value in test [4] (applied alone at 35 g/ha) was 33%; in test [4] (applied alone at 70 g/ha), 48%; in test [4] (applied alone at 140 g/ha), 64%; in test [4] (applied alone at 280 g/ha) it was 83%; in test [5] (applied alone at 35 g/ha), 62%; in test [5] (applied alone at 70 g/ha) it was 81%. Moreover, the “Herbicidal effect, observed (Ob)” value in test [5] (applied alone at 140 g/ha) worked out at 93%; in test [5] (applied alone at 280 g/ha) it was 97%.

For `O=C(O)CNCP(=O)(O)O` [Glyphosate + AMS, N-(phosphonomethyl)glycine], the “Herbicidal effect, observed (Ob)” value in test [1] (applied alone at 35 g/ha) stood at 0%; in test [1] (applied alone at 70 g/ha) it was 0%; in test [1] (applied alone at 140 g/ha), 3%; in test [1] (applied alone at 280 g/ha) it was 7%; in test [2] (applied alone at 35 g/ha) it was 8%; in test [2] (applied alone at 70 g/ha) it was 12%. Further, the “Herbicidal effect, observed (Ob)” value is listed as 57% in test [2] (applied alone at 140 g/ha); 66% in test [2] (applied alone at 280 g/ha); 7% in test [3] (applied alone at 35 g/ha); 27% in test [3] (applied alone at 70 g/ha); 49% in test [3] (applied alone at 140 g/ha); 58% in test [3] (applied alone at 280 g/ha). The “Herbicidal effect, observed (Ob)” value in test [4] (applied alone at 35 g/ha) came to 9%; in test [4] (applied alone at 70 g/ha), 9%; in test [4] (applied alone at 140 g/ha) it was 41%; in test [4] (applied alone at 280 g/ha), 51%; in test [5] (applied alone at 35 g/ha) it was 47%; in test [5] (applied alone at 70 g/ha) it was 55%. Further, the results for the “Herbicidal effect, observed (Ob)” value in test [5] (applied alone at 140 g/ha) and in test [5] (applied alone at 280 g/ha) were 72% and 78%, respectively.
